Results from US9700057B2, “Bradyrhizobium strains” (NOVOZYMES BIOAG A/S, priority 2011, dated 2017).

Tested on: parental strain USDA 532C
Assay: Kill rate of USDA 532C using the mutagen ethyl methanesulfonate (EMS)
Assay type: cell-based, Bradyrhizobia japonicum
Experimental: The following experiment(s) were performed to determine the application rate of the mutagen, ethyl methanosulfonate (EMS) that would give a 99.9-99.99 percent kill rate for parental strain USDA 532C. This rate determination will become part of the mutagenesis protocol used to generate desiccation-resistant putative mutants although the method of mutagenesis may evolve for efficiency.
Parental strain USDA 532C was grown in six 10 ml YEM disposable culture tubes for two days and 5 ml of the culture was inoculated into four 250 ml flasks containing 50 ml YEM medium. The flasks were incubated for two days at 30° C. shaker. The culture from the flasks were subsequently centrifuged in 50 ml disposable sterile tubes at 8,000 rpm for ten minutes in a Sorvall RC 6 Plus® centrifuge and combined into one tube. The pellet was re-suspended in 4 ml of fresh YEM medium and separated into four 1.5 ml microcentrifuge tubes. The tubes would each represent different application rates used for the mutagenesis process.
Once the culture have been aliquoted into separate tubes and the mutagen EMS (Sigma, C3H8O3S, FW 124.16, #M0880-1G) added to each tube, the tubes were vortexed vigorously and placed in an empty 250 ml flask. The flask containing the reaction tubes were incubated for 30 minutes at 30° C. in a shaker. Immediately following the incubation period, the tubes were washed five times with 0.16M sodium thiosulfate (STS, Fisher Chemical, Na2S2O3*5H2O, FW 248.18, #S445-3)) solution to inactivate the mutagen. After washing, the cells in the reaction tubes were sheared with 21 gauge syringe needle (BD 1 ml 21G1 Latex Free Syringe PrecisionGlide® Needle, 0.8 mm×25 mm, #309624) and dilutions were completed and plated on YEMA plates. The cell counts were available after five days incubation at 30° C. and the percent kill of the EMS application rate was calculated. To calculate the percent kill rate for each application rate, the following equation was used: ([cell count 0 μl EMS (control)−(cell count of μl EMS (treatment))÷cell count 0 μl EMS (control)]×100%). All other experiments following this experiment used this equation to calculate the percent kill rate.

[1] = Table 12, 25 μl EMS, decreased washing
[2] = Table 14 (repeat of Table 13), 40 μl EMS
[3] = Table 14 (repeat of Table 13), 45 μl EMS
[4] = Table 15 (repeat of Table 14), 45 μl EMS
[5] = Table 15 (repeat of Table 14), 50 μl EMS

Compound: CCOS(C)(=O)=O [EMS, ethyl methanesulfonate]
- Cell counts (approximate cfu/ml) (Table 10, 10 μl EMS, 30 minutes at 30° C.): no difference
- Cell counts (approximate cfu/ml) (Table 11, 15 μl EMS): 2.24 × 10^9 cfu/ml
- Percent kill rate (Table 11, 15 μl EMS): 10.17%
- Cell counts (approximate cfu/ml) (Table 11, 25 μl EMS): 1.72 × 10^9 cfu/ml
- Percent kill rate (Table 11, 25 μl EMS): 30.92%
- Cell counts (approximate cfu/ml) (Table 11, 50 μl EMS): 1.67 × 10^1 cfu/ml
- Cell counts (approximate cfu/ml) [1]: 1.27 × 10^9 cfu/ml
- Percent kill rate [1]: 73.09%
- Cell counts (approximate cfu/ml) (Table 12, 35 μl EMS): 5.37 × 10^8 cfu/ml
- Percent kill rate (Table 12, 35 μl EMS): 88.58%
- Cell counts (approximate cfu/ml) (Table 12, 50 μl EMS): 2.93 × 10^2 cfu/ml
- Percent kill rate (Table 12, 50 μl EMS): 100%
- Cell counts (approximate cfu/ml) (Table 13, 40 μl EMS): 6.97 × 10^8 cfu/ml
- Percent kill rate (Table 13, 40 μl EMS): 82.26%
- Cell counts (approximate cfu/ml) (Table 13, 45 μl EMS): 8.57 × 10^7 cfu/ml
- Percent kill rate (Table 13, 45 μl EMS): 97.82%
- Cell counts (approximate cfu/ml) (Table 13, 50 μl EMS): 2.65 × 10^5 cfu/ml
- Percent kill rate (Table 13, 50 μl EMS): 99.99%
- Cell counts (approximate cfu/ml) [2]: 1.35 × 10^9 cfu/ml
- Percent kill rate [2]: 99.81%
- Cell counts (approximate cfu/ml) [3]: 5.27 × 10^8 cfu/ml
- Percent kill rate [3]: 99.93%
- Cell counts (approximate cfu/ml) (Table 14 (repeat of Table 13), 50 μl EMS): 2.19 × 10^6 cfu/ml
- Cell counts (approximate cfu/ml) [4]: 3.33 × 10^4 cfu/ml
- Percent kill rate [4]: 99.98%
- Cell counts (approximate cfu/ml) [5]: 4.33 × 10^1 cfu/ml
- Percent kill rate [5]: 100%
